Source: patent US12018023B2 (NERVIANO MEDICAL SCIENCES S.R.L., priority 2018, dated 2024)

Key:
IDH1^R132C = biological target: T1, IDH1^R132C (Homo sapiens, UniProt O75874, R132C); test: NADPH depletion assay, IDH1 R132C; type: biochemical
T1 construct: purchased not specified
Summary of the method: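 Fluorescence readout (Ex544/Em590) of NADPH left after diaphorase/resazurin addition. Alpha-ketoglutarate 0.14 mM final, enzyme 2 nM final; compound preincubation 15 min, then 60 min reaction, both at room temperature, pH 7.6 Tris buffer.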

HT-1080 (IDH1^R132C) = test: Cellular 2-HG production assay, HT-1080; type: cell-based; conditions: Homo sapiens, HT-1080, 72 h, inhibition of 2HG production, 72 hr incubation, LC-MS/MS; read-out: HT1080 2-HG IC50
Protocol: Cell lines HT-1080 (commercially available) and U87-MG-IDH1^R132H (obtained in analoy to the procedure reported in J. Mol. Neurosci 2013, 50, 165-71) are maintained in E-MEM 10% FCS and incubated at 37° C. in a humidified 5% CO2 atmosphere. Stably transfected U87-MG cell lines are also supplemented with 500 μg/mL G418.
Cells are seeded into 96 well black flat bottom plates at a density of 500 cells/well in 100 μL complete medium. After 24 hr the medium is replaced with 200 uL of fresh medium and compounds (dissolved into DMSO) are administrated to the cells using D300E Digital Dispenser (Tecan).
After 72 hr of incubation 100 uL from each well are collected and used for 2HG (R(−)-2-hydroxyglutarate) quantification.
Levels of 2-HG in cell culture media are determined by LC-MS/MS. Cell supernatants (100 μL/well) are treated with 1 M aqueous trichloroacetic acid containing 130 μM of the internal standard 2-HG-d3 (20 μL/well) in a 96-well plate.
The plates are sealed, mildly vortexed for 60 minutes, centrifuged at 4,000 RPM for 15 minutes, placed in a refrigerated autosampler taking care not to shake them, and aliquots of the upper part of the samples are directly injected in the chromatographic system. Calibration standards are obtained by ten fold dilution of aqueous 2-HG stock solutions with blank cell culture medium and denatured exactly in the same way as described above for samples. Samples and standards are assayed for 2-HG by reversed phase chromatography on a C18 column eluted with aqueous 0.15% formic acid and briefly washed with 90% methanol at the end of the run. 2-HG is determined by negative ion electrospray ionization with the internal standard method on a triple quadrupole mass spectrometer monitoring the MRM transitions 147>129 (2-HG) and 150>132 (2-HG-d3). 2-HG inhibition was calculated by comparing treated versus control data using Assay Explore (Symyx) software, with IC50 determined using a sigmoidal fitting algorithm.

[1] = biological target: T2, IDH1^R132H homodimer enzyme (Homo sapiens, UniProt O75874, R132H); test: NADPH depletion assay, IDH1 R132H; type: biochemical
T2 construct: purchased not specified
T2 sequence (O75874 whole entry R132H): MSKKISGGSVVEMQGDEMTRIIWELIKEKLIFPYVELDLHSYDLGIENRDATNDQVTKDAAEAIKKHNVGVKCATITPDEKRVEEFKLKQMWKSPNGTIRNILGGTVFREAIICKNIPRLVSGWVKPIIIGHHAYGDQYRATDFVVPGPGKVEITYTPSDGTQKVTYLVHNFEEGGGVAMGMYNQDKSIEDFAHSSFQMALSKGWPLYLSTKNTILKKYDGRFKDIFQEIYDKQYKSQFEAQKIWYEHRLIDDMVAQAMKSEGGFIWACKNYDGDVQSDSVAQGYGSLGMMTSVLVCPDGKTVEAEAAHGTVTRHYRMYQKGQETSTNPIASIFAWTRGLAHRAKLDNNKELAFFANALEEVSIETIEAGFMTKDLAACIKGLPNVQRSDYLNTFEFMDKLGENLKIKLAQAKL
Summary of the method: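 IDH1 R132H enzyme (8 nM as diluted) in Tris-HCl pH 7.6 with 10 mM MgCl2, 0.001% Triton X-100 and 4 mM β-mercaptoethanol is preincubated 15 min at RT with compound. Substrate mix (12 uM NADPH, 3.4 mM α-ketoglutarate) is added for 60 min; remaining NAD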

IDH2^R172K = biological target: T3, IDH2^R172K (Homo sapiens, UniProt P48735, R172K); test: NADPH depletion assay, IDH2 R172K; type: biochemical
T3 construct: purchased not specified
T3 sequence (P48735 40-452 R172K): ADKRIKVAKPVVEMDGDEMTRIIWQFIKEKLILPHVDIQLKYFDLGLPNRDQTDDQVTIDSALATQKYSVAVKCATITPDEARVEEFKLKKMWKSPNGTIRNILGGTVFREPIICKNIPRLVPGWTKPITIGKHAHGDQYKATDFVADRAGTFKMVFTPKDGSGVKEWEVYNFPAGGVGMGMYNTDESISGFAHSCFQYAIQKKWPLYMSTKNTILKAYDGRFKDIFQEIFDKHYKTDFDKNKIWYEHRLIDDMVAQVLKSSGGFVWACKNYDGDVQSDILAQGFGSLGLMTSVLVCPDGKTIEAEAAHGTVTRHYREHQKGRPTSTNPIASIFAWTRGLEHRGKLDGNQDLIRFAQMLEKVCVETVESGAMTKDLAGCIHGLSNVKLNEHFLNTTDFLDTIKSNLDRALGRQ
Protocol: IDH mutated enzyme activity converting alpha-ketoglutarate to 2-hydroxyglutaric acid is measured using a NADPH depletion assay. In the assay the remaining cofactor is measured at the end of the reaction with the addition of a catalytic excess of diaphorase and resazurin, to generate a fluorescent signal in proportion to the amount of NADPH remaining. IDH1 WT enzyme as well as mutated isoforms IDH1^R132H, IDH1^R132C, and IDH^2R172K enzymes are commercially available proteins (see e.g. Sino Biological, Abcam, Active Motif or Creative BioMart).
IDH1^R132H homodimer enzyme are diluted to 8 nM, in 10 μL of Assay Buffer (150 mM NaCl, 50 mM Tris-HCl pH 7.6, 10 mM MgCl2, 0.001% Triton X-100, 4 mM β-mercaptoethanol); 0.2 uL of test compound, previously serially diluted 1 to 3, >10 experimental points from 1 mM in DMSO, is added and the mixture is incubated for 15 minutes at room temperature. The reaction is started with the addition of 10 μL of Substrate Mix (12 uM NADPH, 3.4 mM alpha-ketoglutarate in Assay Buffer) and the mixture is incubated for 60 minutes at room temperature. The reaction is terminated with the addition of 5 μl of Detection Buffer (100 μg/mL diaphorase, 30 μM resazurin, in IX Assay Buffer), and is incubated for 15 minute before reading on a ViewLux as platereader at Ex544/Em590.
Compounds are assayed for their activity against IDH2^R172K following the same assay as above with the following modifications: IDH2^R172K and alpha-ketoglutarate final concentrations in the Assay Buffer is 16 nM and 0.55 mM, respectively.

T1 sequence (O75874 whole entry R132C): as the sequence (O75874 whole entry R132H) above, with H132C counted along it

## C=C(C)C(=O)N1CCN(C(CC)c2ccc([C@H](C)Nc3ncc4ccc(=O)n(C(C)C)c4n3)cc2)CC1 (stereo partly drawn) [cpd 221, 2-{[(1S)-1-(4-{1-[4-(2-methylacryloyl)piperazin-1-yl]propyl}phenyl)ethyl]amino}-8-(propan-2-yl)pyrido[2,3-d]pyrimidin-7(8H)-one]
IDH1^R132C
  IC50: 0.068 µM
HT-1080 (IDH1^R132C)
  IC50: 0.142 µM

## C#Cc1ccc(Cn2c(=O)ccc3cnc(N[C@@H](C)c4ccc(CN5CCN(C(=O)C=C)CC5)cc4)nc32)c(F)c1 [cpd 217, 2-{[(1S)-1-{4-[(4-acryloylpiperazin-1-yl)methyl]phenyl}ethyl]amino}-8-(4-ethynyl-2-fluorobenzyl)pyrido[2,3-d]pyrimidin-7(8H)-one]
IDH1^R132C
  IC50: 0.015 µM
HT-1080 (IDH1^R132C)
  IC50: 0.0082 µM

## C/C=C/C(=O)N1CCN(C(CC)c2ccc([C@H](C)Nc3ncc4ccc(=O)n(C(C)C)c4n3)cc2)CC1 (stereo partly drawn) [cpd 222, 2-({(1S)-1-[4-(1-{4-[(2E)-but-2-enoyl]piperazin-1-yl}propyl)phenyl]ethyl}amino)-8-(propan-2-yl)pyrido[2,3-d]pyrimidin-7(8H)-one]
IDH1^R132C
  IC50: 0.147 µM
HT-1080 (IDH1^R132C)
  IC50: 0.168 µM

## C[C@H](Nc1ncc2ccc(=O)n(CC3CC3)c2n1)c1ccc(Cl)cc1 [cpd 20, 2-{[(1S)-1-(4-chlorophenyl)ethyl]amino}-8-(cyclopropylmethyl)pyrido[2,3-d]pyrimidin-7(8H)-one]
[1]
  IC50: 0.74 µM
IDH1^R132C
  IC50: 0.332 µM
IDH2^R172K
  IC50: 5.02 µM

## C=CC(=O)N1CCN(c2ccc([C@H](C)Nc3ncc4ccc(=O)n([C@@H](C)C(C)C)c4n3)cc2F)CC1 [cpd 179, 2-({(1S)-1-[4-(4-acryloylpiperazin-1-yl)-3-fluorophenyl]ethyl}amino)-8-[(2S)-3-methylbutan-2-yl]pyrido[2,3-d]pyrimidin-7(8H)-one]
[1]
  IC50: 0.123 µM
IDH1^R132C
  IC50: 0.063 µM
IDH2^R172K
  IC50: 2.35 µM

## C[C@H](Nc1ncc2ccc(=O)n(Cc3ccccc3)c2n1)c1ccc(Cl)cc1 [cpd 16, 8-benzyl-2-{[(1S)-1-(4-chlorophenyl)ethyl]amino}pyrido[2,3-d]pyrimidin-7(8H)-one]
[1]
  IC50: 1 µM
IDH1^R132C
  IC50: 0.46 µM
IDH2^R172K
  IC50: 2.7 µM

## C[C@H](Nc1ncc2ccc(=O)n(Cc3ccccc3F)c2n1)c1ccc(Cl)cc1 [cpd 22, 2-{[(1S)-1-(4-chlorophenyl)ethyl]amino}-8-(2-fluorobenzyl)pyrido[2,3-d]pyrimidin-7(8H)-one]
[1]
  IC50: 0.451 µM
IDH1^R132C
  IC50: 0.195 µM
IDH2^R172K
  IC50: 2.99 µM

## CC(C)[C@H](C)n1c(=O)ccc2cnc(N[C@@H](C)c3ccc(-c4ccccc4C#N)cc3)nc21 [cpd 165, 4′-[(1S)-1-({8-[(2S)-3-methylbutan-2-yl]-7-oxo-7,8-dihydropyrido[2,3-d]pyrimidin-2-yl}amino)ethyl]biphenyl-2-carbonitrile]
[1]
  IC50: 0.157 µM
IDH1^R132C
  IC50: 0.085 µM
IDH2^R172K
  IC50: 5.66 µM

## C[C@H](Nc1ncc2ccc(=O)n(Cc3ccc(OC(F)(F)F)cc3)c2n1)c1ccc(Cl)cc1 [cpd 26, 2-{[(1S)-1-(4-chlorophenyl)ethyl]amino}-8-[4-(trifluoromethoxy)benzyl]pyrido[2,3-d]pyrimidin-7(8H)-one]
[1]
  IC50: 2.36 µM
IDH1^R132C
  IC50: 1.26 µM
IDH2^R172K
  IC50: 2.2 µM

## CC(C)[C@H](C)n1c(=O)ccc2cnc(N[C@@H](C)c3ccc(N4CCN(C(=O)OCc5ccccc5)CC4)c(F)c3)nc21 [cpd 178, Benzyl 4-{2-fluoro-4-[(1S)-1-({8-[(2S)-3-methylbutan-2-yl]-7-oxo-7,8-dihydropyrido[2,3-d]pyrimidin-2-yl}amino)ethyl]phenyl}piperazine-1-carboxylate]
[1]
  IC50: 0.046 µM
IDH1^R132C
  IC50: 0.03 µM
IDH2^R172K
  IC50: 5.02 µM

## CC(Nc1ncc2ccc(=O)n(Cc3ccccc3)c2n1)c1ccc(CN2CCC(F)(F)CC2)cc1 (stereo not drawn) [cpd 96, 8-benzyl-2-[(1-{4-[(4,4-difluoropiperidin-1-yl)methyl]phenyl}ethyl)amino]pyrido[2,3-d]pyrimidin-7(8H)-one]
[1]
  IC50: 0.801 µM
IDH1^R132C
  IC50: 0.42 µM
IDH2^R172K
  IC50: 5.02 µM

## C[C@H](Nc1ncc2ccc(=O)n(CC(C)(C)C)c2n1)c1ccc(OC2CCN(C(=O)OC(C)(C)C)CC2)cc1 [cpd 154, 4-(4-{(S)-1-[8-(2,2-Dimethyl-propyl)-7-oxo-7,8-dihydro-pyrido[2,3-d]pyrimidin-2-ylamino]-ethyl}-phenoxy)-piperidine-1-carboxylic acid tert-butyl ester]
[1]
  IC50: 0.199 µM
IDH1^R132C
  IC50: 0.079 µM
IDH2^R172K
  IC50: 5.38 µM

## CC(Nc1ncc2ccc(=O)n(Cc3ccccc3F)c2n1)c1ccc(CN2CCC(F)(F)CC2)cc1 (stereo not drawn) [cpd 97, 2-[(1-{4-[(4,4-difluoropiperidin-1-yl)methyl]phenyl}ethyl)amino]-8-(2-fluorobenzyl)pyrido[2,3-d]pyrimidin-7(8H)-one]
[1]
  IC50: 0.524 µM
IDH1^R132C
  IC50: 0.323 µM
IDH2^R172K
  IC50: 5.03 µM

## COC(=O)C(C)(C)Cn1c(=O)ccc2cnc(N[C@@H](C)c3ccc4ccccc4c3)nc21 [cpd 37, methyl 2,2-dimethyl-3-[2-{[(1S)-1-(naphthalen-2-yl)ethyl]amino}-7-oxopyrido[2,3-d]pyrimidin-8(7H)-yl]propanoate]
[1]
  IC50: 1.48 µM
IDH1^R132C
  IC50: 0.805 µM
IDH2^R172K
  IC50: 4.85 µM

## CCn1c(=O)ccc2cnc(N[C@@H](C)c3ccc(Cl)cc3)nc21 [cpd 14, 2-{[(1S)-1-(4-chlorophenyl)ethyl]amino}-8-ethylpyrido[2,3-d]pyrimidin-7(8H)-one]
[1]
  IC50: 1.74 µM
IDH1^R132C
  IC50: 0.85 µM
IDH2^R172K
  IC50: 5.73 µM

## C[C@H](Nc1ncc2ccc(=O)n(CC(C)(C)C)c2n1)c1ccc(-c2ccsc2)cc1 [cpd 133, 8-(2,2-dimethylpropyl)-2-({(1S)-1-[4-(thiophen-3-yl)phenyl]ethyl}amino)pyrido[2,3-d]pyrimidin-7(8H)-one]
[1]
  IC50: 0.218 µM
IDH1^R132C
  IC50: 0.141 µM
IDH2^R172K
  IC50: 5.05 µM

## COC(=O)c1ccc([C@H](C)Nc2ncc3ccc(=O)n(CC(C)(C)C)c3n2)cc1 [cpd 11, methyl 4-[(1S)-1-{[8-(2,2-dimethylpropyl)-7-oxo-pyrido[2,3-d]pyrimidin-2-yl]amino}ethyl]benzoate]
[1]
  IC50: 0.362 µM
IDH1^R132C
  IC50: 0.181 µM
IDH2^R172K
  IC50: 6.1 µM

## CC(C)[C@H](C)n1c(=O)ccc2cnc(N[C@@H](C)c3ccc(C4=CCN(C(=O)OC(C)(C)C)CC4)cc3)nc21 [cpd 167, tert-butyl 4-{4-[(1S)-1-({8-[(2S)-3-methylbutan-2-yl]-7-oxo-7,8-dihydropyrido[2,3-d]pyrimidin-2-yl}amino)ethyl]phenyl}-3,6-dihydropyridine-1(2H)-carboxylate]
[1]
  IC50: 0.03 µM
IDH1^R132C
  IC50: 0.023 µM
IDH2^R172K
  IC50: 2.56 µM
